Data taken from patent publication US5985874A, “Substituted morpholine derivative and its use as a therapeutic agent” (Merck Sharp & Dohme Ltd., priority 1998, dated 1999).
pIC50: −log10 of the molar value.

Columns and labels:
[1] = system: cisplatin-induced emesis; experiment: ferret model of cisplatin-induced emesis (Tattersall et al, Eur. J. Pharmacol. 1993); assay type: in vivo
[2] = target: NK1 receptor (Homo sapiens, UniProt P25103); experiment: NK1 receptor test by the methods of WO 93/01165 (pages 36 to 39); assay type: binding; conditions: test methods of WO 93/01165, pages 36 to 39
Procedure: The compound of this invention was tested by the methods set out at pages 36 to 39 of International Patent Specification No. WO 93/01165.

NK1 receptor, sequence (P25103 whole entry): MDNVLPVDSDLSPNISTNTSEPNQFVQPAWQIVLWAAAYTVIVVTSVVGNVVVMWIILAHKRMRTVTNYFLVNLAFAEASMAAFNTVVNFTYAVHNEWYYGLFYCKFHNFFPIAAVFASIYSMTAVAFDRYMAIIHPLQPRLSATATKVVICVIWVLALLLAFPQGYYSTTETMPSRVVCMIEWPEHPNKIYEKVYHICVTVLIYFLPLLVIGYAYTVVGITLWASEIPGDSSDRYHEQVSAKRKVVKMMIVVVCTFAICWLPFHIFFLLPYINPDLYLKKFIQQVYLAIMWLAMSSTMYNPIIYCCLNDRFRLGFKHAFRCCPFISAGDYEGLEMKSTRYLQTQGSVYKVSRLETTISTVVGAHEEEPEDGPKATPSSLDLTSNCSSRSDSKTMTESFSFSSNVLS

pIC50 [2]: > 9.00
Compound: Cn1cnc(CN2CCO[C@H](O[C@H](CO)c3cc(C(F)(F)F)cc(C(F)(F)F)c3)[C@@H]2c2ccc(F)cc2)n1 [Example 1, 2(R)-(1-(3,5-Bis(trifluoromethyl)phenyl)-2(S)-hydroxyethoxy)-3(S)-(4-fluorophenyl)-4-((1-methyl-1,2,4-triazol-3-yl)methylene)morpholine]
retching and vomiting induced by cisplatin [1]: attenuate the retching and vomiting induced by cisplatin
